pIC50, pKi: −log10 of the molar value.
Key:
L1210 [1] = assay: Increase in life span of mice infected with L1210 leukemia after an intraperitoneal dose of 4 mg/kg for 9 days; type: functional; conditions: Mus musculus, L1210, ip, 216 h
L1210 [2] = assay: Mean survival of mice infected with L1210 leukemia after an intraperitoneal dose of 4 mg/kg for 9 days; type: functional, Mus musculus
L1210 [3] = assay: Range for the survival of mice infected with L1210 leukemia after an intraperitoneal dose of 4 mg/kg for 9 days; type: functional, Mus musculus
L1210 [4] = assay: Mean change in weight of mice infected with L1210 leukemia after 7 days after an intraperitoneal dose of 4 mg/kg; type: functional, Mus musculus
L1210 [5] = assay: Mean survival of mice infected with L1210 leukemia after an intraperitoneal dose of 50 mg/kg for 9 days; type: functional, Mus musculus
L1210 [6] = assay: Mean change in weight of mice infected with L1210 leukemia after 7 days after an intraperitoneal dose of 25 mg/kg; type: functional, Mus musculus
[7] = Inhibitory constant against purified Folyl-polyglutamate synthase from mouse liver; type: functional
L1210 [8] = assay: Mean change in weight of mice infected with L1210 leukemia after 7 days after an intraperitoneal dose of 12.5 mg/kg; type: functional, Mus musculus
L1210 [9] = assay: Range for the survival of mice infected with L1210 leukemia after an intraperitoneal dose of 50 mg/kg for 9 days; Range is 8-16
L1210 [10] = assay: Mean survival of mice infected with L1210 leukemia after an intraperitoneal dose of 25 mg/kg for 9 days; type: functional, Mus musculus
L1210 [11] = assay: Mean survival of mice infected with L1210 leukemia after an intraperitoneal dose of 6.25 mg/kg for 9 days; type: functional, Mus musculus
L1210 [12] = assay: Mean change in weight of mice infected with L1210 leukemia after 7 days after an intraperitoneal dose of 50 mg/kg; type: functional, Mus musculus
L1210 [13] = assay: Mean change in weight of mice infected with L1210 leukemia after 7 days after an intraperitoneal dose of 6.25 mg/kg; type: functional, Mus musculus
L1210 [14] = assay: Range for the survival of mice infected with L1210 leukemia after an intraperitoneal dose of 6.25 mg/kg for 9 days; Range is 10-13; type: functional, Mus musculus
L1210 [15] = assay: Increase in life span of mice infected with L1210 leukemia after an intraperitoneal dose of 50 mg/kg for 9 days; type: functional; conditions: Mus musculus, L1210, ip, 216 h
L1210 [16] = assay: Increase in life span of mice infected with L1210 leukemia after an intraperitoneal dose of 12.5 mg/kg for 9 days; type: functional; conditions: Mus musculus, L1210, ip, 216 h
Mus musculus [17] = species: Mus musculus; assay: (§1) Tested for inhibition against purified Folyl-polyglutamate synthase from mouse liver; type: functional; conditions: dose or concentration not given here
L1210 ( R81) = assay: Tested for cell-growth inhibition against mouse leukemic L1210/R81 cells; type: functional, cell-based
L1210 [18] = assay: Range for the survival of mice infected with L1210 leukemia after an intraperitoneal dose of 25 mg/kg for 9 days; type: functional, Mus musculus
L1210 [19] = assay: Range for the survival of mice infected with L1210 leukemia after an intraperitoneal dose of 12.5 mg/kg for 9 days; Range is 10-15; type: functional, Mus musculus
L1210 [20] = assay: Increase in life span of mice infected with L1210 leukemia after an intraperitoneal dose of 6.25 mg/kg for 9 days; type: functional; conditions: Mus musculus, L1210, ip, 216 h
Dihydrofolate reductase = target: T1, Dihydrofolate reductase (Mus musculus, UniProt P00375); assay: biochemical
T1 sequence (P00375 whole entry): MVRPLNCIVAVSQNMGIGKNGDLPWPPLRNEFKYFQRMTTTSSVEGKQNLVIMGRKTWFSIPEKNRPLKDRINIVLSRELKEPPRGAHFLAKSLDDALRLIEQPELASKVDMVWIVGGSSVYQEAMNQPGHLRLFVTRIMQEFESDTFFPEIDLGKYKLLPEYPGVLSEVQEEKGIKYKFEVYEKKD
Description: Tested for inhibition against purified Dihydrofolate reductase from L1210 murine leukemia cells

L1210 [21] = assay: Increase in life span of mice infected with L1210 leukemia after an intraperitoneal dose of 25 mg/kg for 9 days; type: functional; conditions: Mus musculus, L1210, ip, 216 h
L1210 [22] = assay: Tested for cell-growth inhibition against mouse leukemic L1210 cells; type: functional, cell-based
L1210 [23] = assay: Mean survival of mice infected with L1210 leukemia after an intraperitoneal dose of 12.5 mg/kg for 9 days; type: functional, Mus musculus
L1210 [24] = assay: Range for the survival of mice infected with L1210 leukemia after an intraperitoneal dose of 6.25 mg/kg for 9 days; type: functional, Mus musculus
L1210 [25] = assay: Range for the survival of mice infected with L1210 leukemia after an intraperitoneal dose of 12.5 mg/kg for 9 days; type: functional, Mus musculus
Mus musculus [26] = species: Mus musculus; assay: as §1; conditions: concentration not given here
L1210 [27] = assay: Range for the survival of mice infected with L1210 leukemia after an intraperitoneal dose of 50 mg/kg for 9 days; type: functional, Mus musculus

Structure (SMILES)	Survival (L1210 [5])	Weight change (L1210 [6])	pKi [7]	Weight change (L1210 [8])	Survival (L1210 [10])	Survival (L1210 [11])	Weight change (L1210 [12])	Weight change (L1210 [13])	ILS at 50 mg/kg (L1210 [15])	ILS at 12.5 mg/kg (L1210 [16])	pIC50 (L1210 ( R81))	Range (L1210 [18])	ILS at 6.25 mg/kg (L1210 [20])	pIC50 (Dihydrofolate reductase)	ILS at 25 mg/kg (L1210 [21])	pIC50 (L1210 [22])	Survival (L1210 [23])	also measured
CN(Cc1cnc2nc(N)nc(N)c2n1)c1ccc(C(=O)N[C@@H](CCC(=O)O)C(=O)O)cc1 [METHOTREXATE]	–	–	–	–	–	–	–	–	–	–	–	–	–	–	–	–	–	ILS at 4 mg/kg (L1210 [1]): 95%; Survival (L1210 [2]): 17.2 days; Range (L1210 [3]): 23 days; Weight change (L1210 [4]): 8%
Nc1nc(N)c2nc(CNc3ccc(C(=O)NC(CCCCCCC(=O)O)C(=O)O)cc3)cnc2n1 (stereo unspecified)	10.6 days	5%	3.77	9%	11.8 days	12 days	7%	9%	20%	61%	< 3.66	16 days	36%	7.27	34%	7.70	14.2 days	Range (L1210 [9]): 8 days; Range (L1210 [14]): 10 days; inhibition (Mus musculus [17]): 50%; Range (L1210 [19]): 10 days
Nc1nc(N)c2nc(CNc3ccc(C(=O)NC(CCCCCCCCCCC(=O)O)C(=O)O)cc3)cnc2n1 (stereo unspecified)	10.4 days	-3%	4.21	10%	9.6 days	12.8 days	4%	10%	18%	57%	3.67	16 days	45%	7.17	11%	8.96	13.8 days	Range (L1210 [24]): 13 days; Range (L1210 [25]): 16 days; inhibition (Mus musculus [26]): 74%; Range (L1210 [27]): 15 days

From ChEMBL document CHEMBL1124261 (J Med Chem, 1988)
